Reference: ChEMBL document CHEMBL5053519, “Discovery and structure - activity relationship exploration of pyrazolo[1,5-a]pyrimidine derivatives as potent FLT3-ITD inhibitors” (Bioorg Med Chem, 2021)
The source made the active and inactive calls. No cut-off for these calls is given here.

What was measured:
[1] = molecular target: Receptor-type tyrosine-protein kinase FLT3 (Homo sapiens, UniProt P36888, ITD)
Description: Inhibition of FLT3-ITD mutant (unknown origin) using Poly (Glu,Tyr) 4:1 as substrate incubated for 1 hr in presence of ATP by ELISA

MV4-11 = test: cells; conditions: Homo sapiens, MV4-11, 72 h
Description: Antiproliferative activity against human MV4-11 cells assessed as reduction in cell viability incubated for 72 hrs by CCK8 assay

MOLM-13 = test: cells; conditions: Homo sapiens, MOLM-13, 72 h
Description: Antiproliferative activity against human MOLM-13 cells assessed as reduction in cell viability incubated for 72 hrs by CCK8 assay

[2] = molecular target: T1, Receptor-type tyrosine-protein kinase FLT3 (Homo sapiens, UniProt P36888)
T1 sequence (P36888 whole entry): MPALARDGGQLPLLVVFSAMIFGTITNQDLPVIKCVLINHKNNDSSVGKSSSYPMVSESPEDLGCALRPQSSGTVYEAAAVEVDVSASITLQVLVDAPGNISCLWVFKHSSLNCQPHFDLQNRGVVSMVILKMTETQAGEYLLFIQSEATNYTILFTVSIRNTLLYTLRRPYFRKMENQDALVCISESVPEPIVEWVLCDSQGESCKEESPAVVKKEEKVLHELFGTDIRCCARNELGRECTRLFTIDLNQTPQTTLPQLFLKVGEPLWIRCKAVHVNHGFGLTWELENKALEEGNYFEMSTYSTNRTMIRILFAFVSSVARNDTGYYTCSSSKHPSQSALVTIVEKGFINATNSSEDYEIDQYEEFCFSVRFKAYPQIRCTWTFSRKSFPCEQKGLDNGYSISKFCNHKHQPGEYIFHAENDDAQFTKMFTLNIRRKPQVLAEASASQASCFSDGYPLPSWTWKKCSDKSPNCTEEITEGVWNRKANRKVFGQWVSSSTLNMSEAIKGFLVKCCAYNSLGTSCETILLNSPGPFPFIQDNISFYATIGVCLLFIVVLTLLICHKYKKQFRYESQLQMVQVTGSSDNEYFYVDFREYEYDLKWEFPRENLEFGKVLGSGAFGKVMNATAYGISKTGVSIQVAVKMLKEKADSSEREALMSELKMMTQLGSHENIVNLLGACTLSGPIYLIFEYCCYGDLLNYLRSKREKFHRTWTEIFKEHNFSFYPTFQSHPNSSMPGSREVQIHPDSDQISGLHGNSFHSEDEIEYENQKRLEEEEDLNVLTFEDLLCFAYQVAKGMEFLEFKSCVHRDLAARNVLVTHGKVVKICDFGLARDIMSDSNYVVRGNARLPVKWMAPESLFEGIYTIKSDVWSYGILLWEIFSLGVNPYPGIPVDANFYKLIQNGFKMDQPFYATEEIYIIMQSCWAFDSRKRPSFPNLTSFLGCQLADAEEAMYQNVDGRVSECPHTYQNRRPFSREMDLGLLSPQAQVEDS
Description: Inhibition of FLT3 (unknown origin) using Poly (Glu,Tyr) 4:1 as substrate incubated for 1 hr in presence of ATP by ELISA

[3] = molecular target: Receptor-type tyrosine-protein kinase FLT3 (Homo sapiens, UniProt P36888, D835Y)
[4] = molecular target: Receptor-type tyrosine-protein kinase FLT3 (Homo sapiens) (UniProt P36888); test: Inhibition of FLT3 phosphorylation in human MV4-11 cells at 0.1 to 10 nM incubated for 2 hrs by Western blot analysis; type: cell-based; conditions: dose 0.1-10 nM
[5] = molecular target: Receptor-type tyrosine-protein kinase FLT3 (Homo sapiens) (UniProt P36888); conditions: MV4-11, dose 1.1 nM, time 2.0 hrs
[6] = molecular target: Receptor-type tyrosine-protein kinase FLT3 (Homo sapiens) (UniProt P36888); test: Inhibition of FLT3 in human MV4-11 cells assessed as suppression of Erk phosphorylation incubated for 2 hrs by Western blot analysis; type: cell-based; conditions: dose 0.1-10 nM
[7] = molecular target: Receptor-type tyrosine-protein kinase FLT3 (Homo sapiens) (UniProt P36888); conditions: MV4-11, dose 1.1 nM, time 2.0 hrs; remark: listed apart in the source

Compound `COc1cc(N2CCN(S(C)(=O)=O)CC2)ccc1NC(=O)c1cnn2ccc(N3CCC[C@@H](N)C3)nc12` has an IC50 [1] of 18.7 nM, an IC50 (MV4-11) of 26.5 nM and an IC50 (MOLM-13) of 43.7 nM. The IC50 [2] was 3.9 nM.
`N#Cc1cc(N2CCOCC2)ccc1NC(=O)c1cnn2ccc(N[C@@H]3CCCNC3)nc12` was tested, and the IC50 [1] was 2 nM, the IC50 (MV4-11) was 0.6 nM and the IC50 (MOLM-13) was 3.7 nM. It also gave an IC50 [2] of 2.6 nM.
Work on `O=C(Nc1ccc(N2CCOCC2)cc1C(F)(F)F)c1cnn2ccc(N[C@H]3CN4CCC3CC4)nc12` yielded an IC50 [1] of 11.7 nM, an IC50 (MV4-11) of 5.13 nM and an IC50 (MOLM-13) of 26.3 nM. For the same compound, the IC50 [2] was 7 nM.
`COc1cc(N2CCN(C)CC2)ccc1NC(=O)c1cnn2ccc(N3CCC[C@@H](N)C3)nc12` showed an IC50 [1] of 3.7 nM, an IC50 (MV4-11) of 7 nM and an IC50 (MOLM-13) of 17 nM. It also gave an IC50 [2] of 12 nM.
With `COc1cc(N2CCCCC2)ccc1NC(=O)c1cnn2ccc(N[C@@H]3CCCNC3)nc12` the IC50 [1] was 69.5 nM, the IC50 (MV4-11) was 9.8 nM and the IC50 (MOLM-13) was 13 nM. It also gave an IC50 [2] of 8 nM.
Compound `CCOc1cc(N2CCOCC2)ccc1NC(=O)c1cnn2ccc(N[C@@H]3CCCNC3)nc12` has an IC50 [1] of 4.1 nM, an IC50 (MV4-11) of 9.8 nM and an IC50 (MOLM-13) of 11.4 nM. The IC50 [2] was 2.7 nM.
For `COc1cc(N(C)CCN(C)C)ccc1NC(=O)c1cnn2ccc(N[C@@H]3CCCNC3)nc12`, the IC50 [1] was 37.5 nM, the IC50 (MV4-11) was 10 nM and the IC50 (MOLM-13) was 23.5 nM. For the same compound, the IC50 [2] was 3.5 nM.
`O=C(Nc1ccc(N2CCOCC2)cc1Br)c1cnn2ccc(N[C@@H]3CCCNC3)nc12` gave an IC50 [1] of 0.8 nM, an IC50 (MV4-11) of under 0.32 nM and an IC50 [3] of 0.4 nM. For the same compound, the IC50 (MOLM-13) was 0.6 nM and the IC50 [2] was 0.4 nM.
`NC(=O)c1cc(N2CCOCC2)ccc1NC(=O)c1cnn2ccc(N[C@@H]3CCCNC3)nc12` was tested, and the IC50 [1] was 7.2 nM, the IC50 (MV4-11) was 172 nM and the IC50 (MOLM-13) was over 1000 nM. For the same compound, the IC50 [2] was 8.7 nM.
`CC(C)Oc1cc(N2CCOCC2)ccc1NC(=O)c1cnn2ccc(N[C@@H]3CCCNC3)nc12` gave an IC50 [1] of 197 nM, an IC50 (MV4-11) of 34.8 nM and an IC50 (MOLM-13) of 35.9 nM. It also gave an IC50 [2] of 32.9 nM.
For `COc1cc(N2CCN(C(C)=O)CC2)ccc1NC(=O)c1cnn2ccc(N[C@@H]3CCCNC3)nc12`, the IC50 [1] was 1.2 nM, the IC50 (MV4-11) was 7.66 nM and the IC50 (MOLM-13) was 17.4 nM. For the same compound, the IC50 [2] was 1.4 nM.
For `Cc1cc(N2CCOCC2)ccc1NC(=O)c1cnn2ccc(N[C@@H]3CCCNC3)nc12`, the IC50 [1] was 1.1 nM, the IC50 (MV4-11) was 7.5 nM and the IC50 (MOLM-13) was 13.8 nM. The IC50 [2] was 1.4 nM.
`O=C(Nc1ccc(N2CCOCC2)cc1F)c1cnn2ccc(N[C@@H]3CCCNC3)nc12` was tested, and the IC50 [1] was 110 nM, the IC50 (MV4-11) was 9.8 nM and the IC50 (MOLM-13) was 16.5 nM. It also gave an IC50 [2] of 25.1 nM.
`O=C(Nc1ccc(N2CCOCC2)cc1)c1cnn2ccc(N[C@@H]3CCCNC3)nc12` showed an IC50 [1] of 21.6 nM, an IC50 (MV4-11) of 23.5 nM and an IC50 (MOLM-13) of 37.1 nM. It also gave an IC50 [2] of 37.7 nM.
With `CN(c1ccn2ncc(C(=O)Nc3ccc(N4CCOCC4)cc3C(F)(F)F)c2n1)[C@@H]1CCCNC1` the IC50 [1] was over 1000 nM, the IC50 (MV4-11) was over 1000 nM and the IC50 (MOLM-13) was over 1000 nM. It also gave an IC50 [2] of 160 nM.
With `O=C(Nc1ccc(N2CCOCC2)cc1C(F)(F)F)c1cnn2ccc(NC3CCCCC3)nc12` the IC50 [1] was over 1000 nM, the IC50 (MV4-11) was over 1000 nM and the IC50 (MOLM-13) was over 1000 nM. It also gave an IC50 [2] of over 1000 nM.
Compound `COc1cc(N2CCOCC2)ccc1NC(=O)c1cnn2ccc(N[C@@H]3CCCNC3)nc12` has an IC50 [1] of 3.1 nM, an IC50 (MV4-11) of 1 nM and an IC50 (MOLM-13) of 10.3 nM. For the same compound, the IC50 [2] was 2.7 nM.
Compound `O=C(Nc1ccc(N2CCOCC2)cc1C(F)(F)F)c1cnn2ccc(N[C@H]3CCCNC3)nc12` has an IC50 [1] of 296 nM, an IC50 (MV4-11) of 12.9 nM and an IC50 (MOLM-13) of 111 nM. The IC50 [2] was over 1000 nM.
With `COc1cc(N2CCCC2)ccc1NC(=O)c1cnn2ccc(N[C@@H]3CCCNC3)nc12` the IC50 [1] was 83.1 nM, the IC50 (MV4-11) was 11.7 nM and the IC50 (MOLM-13) was 19.5 nM. It also gave an IC50 [2] of 7.1 nM.
With `O=C(Nc1ccc(N2CCOCC2)cc1C(F)(F)F)c1cnn2ccc(N[C@@H]3CCCNC3)nc12` the IC50 [1] was 1 nM, the inhibition [4] was “Active” and the IC50 (MV4-11) was 1.3 nM. The IC50 [3] was 0.3 nM, the IC50 (MOLM-13) was 1 nM and the IC50 [2] was 0.4 nM. The inhibition [5] was 100%, the inhibition [6] was “Dose-dependent effect” and the inhibition [7] was 100%.
`O=C(Nc1ccc(N2CCOCC2)cc1C(F)(F)F)c1cnn2ccc(NC3CNC3)nc12` gave an IC50 [1] of 30.7 nM, an IC50 (MV4-11) of 29.5 nM and an IC50 (MOLM-13) of 157 nM. It also gave an IC50 [2] of 39.9 nM.
With `COc1cc(N2CCC(N3CCOCC3)CC2)ccc1NC(=O)c1cnn2ccc(N[C@@H]3CCCNC3)nc12` the IC50 [1] was 18 nM, the IC50 (MV4-11) was 6.3 nM and the IC50 (MOLM-13) was 10.3 nM. For the same compound, the IC50 [2] was 2.9 nM.
`O=C(Nc1ccc(N2CCOCC2)cc1C(F)(F)F)c1cnn2ccc(N[C@@H]3CCNC3)nc12` was tested, and the IC50 [1] was 96.7 nM, the IC50 (MV4-11) was 8 nM and the IC50 (MOLM-13) was 16.3 nM. For the same compound, the IC50 [2] was 5.5 nM.
With `O=C(Nc1ccc(N2CCOCC2)cc1C(F)(F)F)c1cnn2ccc(N[C@@H]3CCCCNC3)nc12` the IC50 [1] was 0.5 nM, the IC50 (MV4-11) was under 0.32 nM and the IC50 (MOLM-13) was 1.4 nM. The IC50 [2] was 0.8 nM.
`O=C(Nc1ccc(N2CCOCC2)cc1C(F)(F)F)c1cnn2ccc(NC3CCNCC3)nc12` showed an IC50 [1] of 6.7 nM, an IC50 (MV4-11) of 28.5 nM and an IC50 (MOLM-13) of 155 nM. For the same compound, the IC50 [2] was 16.5 nM.
`COc1ccccc1NC(=O)c1cnn2ccc(N[C@@H]3CCCNC3)nc12` showed an IC50 [1] of 144 nM, an IC50 (MV4-11) of 5.3 nM and an IC50 (MOLM-13) of 19.4 nM. The IC50 [2] was 38.2 nM.
`CN1CCC[C@@H](Nc2ccn3ncc(C(=O)Nc4ccc(N5CCOCC5)cc4C(F)(F)F)c3n2)C1` showed an IC50 [1] of 181 nM, an IC50 (MV4-11) of 23.4 nM and an IC50 (MOLM-13) of 262 nM. It also gave an IC50 [2] of 264 nM.
With `COc1cc(N2CCNCC2)ccc1NC(=O)c1cnn2ccc(N3CCC[C@@H](N)C3)nc12` the IC50 [1] was 1.9 nM, the IC50 (MV4-11) was 46 nM and the IC50 (MOLM-13) was 249 nM. The IC50 [2] was 3.8 nM.
`CSc1cc(N2CCOCC2)ccc1NC(=O)c1cnn2ccc(N[C@@H]3CCCNC3)nc12` was tested, and the IC50 [1] was 1.6 nM, the IC50 (MV4-11) was under 0.32 nM and the IC50 (MOLM-13) was 2.5 nM. It also gave an IC50 [2] of 1.2 nM.
Work on `COc1cc(N2CCOCC2)ccc1NC(=O)c1cnn2ccc(N3CCC[C@@H](N)C3)nc12` yielded an IC50 [1] of 1.3 nM, an IC50 (MV4-11) of 11.2 nM and an IC50 (MOLM-13) of 28.3 nM. It also gave an IC50 [2] of 3.5 nM.
